Experimental data from PMC2690590, “Functional recombinant MHC class II molecules and high-throughput peptide-binding assays” (Immunome Research, 2009).
Where no end group is shown, it is not given here.

Assays:
DR3 (DRA*0101/DRB1*0301) = target: T1, DR3 (DRA*0101/DRB1*0301) (Homo sapiens, UniProt P01903+P01911, A100K/A102G/A103R/A169T/F55Y/I96L/K41T/L162R/M171V/P40S/Q125H/Q178H/Q39Y/R42S/S66N/T106N/T262R/W38E/Y61H); assay: Direct LOCI peptide-MHC-II binding assay, DR3
T1 construct: DRA*01011-181LZFos; DRB1*03011-190LZJunBSP; made in house

DR4 (DRA*0101/DRB1*0401) = target: T2, DR4 (DRA*0101/DRB1*0401) (Homo sapiens, UniProt P01903+P01911, A100K/A169T/F76Y/I96L/K127E/L162R/M171V/N62H/P40V/Q125Y/R42H/S133A/S149N/S66Y/V115G/V209L/W38E); assay: Direct LOCI peptide-MHC-II binding assay, DR4
T2 construct: DRA*01011-181LZFos; DRB1*04011-190LZJunBSP; made in house

[1] = target: T3, DRB1*0813 (DRA*0101/DRB1*0813) (Homo sapiens, UniProt P01903+P01911, A100R/A103L/A169T/F76Y/H45Y/I96L/K41T/L162R/M171V/P40S/Q125H/Q178H/Q39Y/Q99D/R218S/R42G/S66Y/V115G/W38E); assay: Direct LOCI peptide-MHC-II binding assay, DRB1*0813
T3 construct: DRA*01011-181LZFos; DRB1*08131-190LZJunBSP; made in house

[2] = target: DP401 (DPA1*0103/DPB1*0401) (Homo sapiens, UniProt P04440+P20036); assay: Direct LOCI peptide-MHC-II binding assay, DP401
Sequence of DP401 (DPA1*0103/DPB1*0401) (P20036 with tags, fused parts or gaps C154S): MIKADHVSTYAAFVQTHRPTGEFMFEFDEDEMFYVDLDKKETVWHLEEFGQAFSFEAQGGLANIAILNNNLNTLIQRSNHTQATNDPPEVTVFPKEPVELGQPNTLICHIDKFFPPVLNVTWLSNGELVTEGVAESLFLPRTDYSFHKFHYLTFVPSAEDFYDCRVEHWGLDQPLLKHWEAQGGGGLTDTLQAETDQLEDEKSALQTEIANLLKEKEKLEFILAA
Sequence of DP401 (DPA1*0103/DPB1*0401) (as listed by the source): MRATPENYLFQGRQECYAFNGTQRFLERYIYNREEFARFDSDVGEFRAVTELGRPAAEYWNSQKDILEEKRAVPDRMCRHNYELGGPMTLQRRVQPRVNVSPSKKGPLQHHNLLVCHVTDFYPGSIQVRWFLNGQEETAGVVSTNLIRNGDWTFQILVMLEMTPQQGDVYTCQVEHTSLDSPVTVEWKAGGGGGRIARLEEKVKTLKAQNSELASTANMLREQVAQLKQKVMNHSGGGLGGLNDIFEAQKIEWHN

[3] = target: T4, DRB3*0301 (DRA*0101/DRB3*0301) (Homo sapiens, UniProt P01903+P79483, A169T/A212P/D57E/G115V/L67V/Q178H/R103Q/R40L/Y55F); assay: Direct LOCI peptide-MHC-II binding assay, DRB3*0301
T4 construct: DRA*01011-181LZFos; DRB3*03011-190LZJunBSP; made in house

In the case of `CSCC[C@H](NC(=O)[C@@H](N)Cc1ccccc1)C(=O)N[C@@H](CO)C(=O)N[C@@H](CCCNC(=N)N)C(=O)N[C@@H](CCCCN)C(=O)N[C@@H](CC(C)C)C(=O)N[C@@H](Cc1c[nH]cn1)C(=O)N[C@@H](CCCNC(=N)N)C(=O)N[C@@H](Cc1ccc(O)cc1)C(=O)O` [Hantaan], the Kd (DR3 (DRA*0101/DRB1*0301)) is reported as 0.279 µM, the Kd (DR4 (DRA*0101/DRB1*0401)) is reported as > 5 µM and the Kd [1] is reported as 0.021 µM. The Kd [2] was > 5 µM.
WMARRHAER [Brucella] was tested, and the Kd (DR3 (DRA*0101/DRB1*0301)) was > 5 µM, the Kd (DR4 (DRA*0101/DRB1*0401)) was > 5 µM and the Kd [3] was > 5 µM. For the same compound, the Kd [2] was > 5 µM.
